This note sets out measurements from BindingDB's records for doi:10.1021/jm701437d (The Institute of Cancer Research, 2008).

A value given as a limit tells only on which side of the number the result lay.

Experiment [1] can be described thus: Inhibition of GSK3-beta in human PC3M cells by ELISA. On the technique in general: ELISA stands for enzyme-linked immunosorbent assay.
The target of experiment [2] is Glycogen synthase kinase-3 beta (Homo sapiens, UniProt P49841). The experiment is described as follows: Inhibition of GSK3-beta in human PC3M cells by ELISA.
Glycogen synthase kinase-3 beta, sequence (P49841 whole entry): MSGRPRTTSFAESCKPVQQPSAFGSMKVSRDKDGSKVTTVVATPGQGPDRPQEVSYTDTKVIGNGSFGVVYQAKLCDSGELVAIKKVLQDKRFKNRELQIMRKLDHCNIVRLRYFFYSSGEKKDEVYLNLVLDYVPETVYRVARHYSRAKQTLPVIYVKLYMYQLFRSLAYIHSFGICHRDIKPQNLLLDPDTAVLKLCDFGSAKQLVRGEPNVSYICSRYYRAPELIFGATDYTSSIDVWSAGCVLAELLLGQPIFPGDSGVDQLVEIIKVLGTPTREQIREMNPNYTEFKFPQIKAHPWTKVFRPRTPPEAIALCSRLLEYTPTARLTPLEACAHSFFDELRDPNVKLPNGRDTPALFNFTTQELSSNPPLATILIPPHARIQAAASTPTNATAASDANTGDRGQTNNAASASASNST

With `NCC1CCN(c2ncnc3n[nH]cc23)CC1`, the IC50 in experiment [1] is above 30000 nM.

On to `NC1CCN(c2ncnc3[nH]ccc23)CC1`, for which the 50% inhibitory concentration (IC50) in experiment [1] came out at 15000 nM.

With `NC(c1ccc(Cl)cc1)C1CCN(c2ccnc3[nH]ccc23)CC1` (centres undefined), the values for the half-inhibitory concentration (IC50) in experiment [2] and in experiment [1] were 590 nM and 2000 nM, respectively.

In experiment [1], `NCC1(Cc2ccc(Cl)cc2)CCN(c2ncnc3nc[nH]c23)CC1` came in with an IC50 of 1700 nM.

Regarding `NCC1CCN(c2ncnc3[nH]ccc23)CC1`, in experiment [1], the IC50 turned out to be 11000 nM.

Compound `NC1CCN(c2ncnc3n[nH]cc23)CC1` displayed an IC50 in experiment [1] above 30000 nM.

Compound `NCC1(c2ccc(Cl)cc2)CCN(c2ncnc3nc[nH]c23)CC1` registered a half-maximal inhibitory concentration (IC50) in experiment [1] of 1300 nM.

`NCC1(c2ccc(Cl)cc2)CCN(c2ncnc3[nH]ccc23)CC1` gave an IC50 in experiment [2] of 590 nM.

The compound `O=c1cc(N2CCOCC2)oc2c(-c3ccccc3)cccc12` gave an IC50 in experiment [2] of 8100 nM.

Consider `NCC1(c2ccc(Cl)cc2)CCN(c2ccnc3[nH]ccc23)CC1`, for which the half-maximal inhibitory concentration (IC50) in experiment [1] was determined as 1400 nM.

In turn, `NCC1(Cc2ccc(Cl)cc2)CCN(c2ncnc3[nH]ccc23)CC1` gave an IC50 in experiment [2] of 1400 nM.

For `NC1(c2ccc(Cl)cc2)CCN(c2ncnc3[nH]ccc23)CC1`, the IC50 in experiment [1] is 600 nM.

In the case of `NC(c1ccccc1)C1CCN(c2ncnc3[nH]ccc23)CC1` (centres undefined), in experiment [1], the IC50 was above 30000 nM.

Broadly, the IC50 is the midpoint of a concentration-inhibition curve. Lower therefore signals greater potency in that assay.
